According to patent US10722582B2, “Targeted antimicrobial photodynamic therapy” (Purdue Research Foundation, priority 2018, dated 2020):
Marks after values point to notes of the source that are not given here.

Assays:
Assay type in all cases: cell-based, Staphylococcus aureus
[1] = system: MRSA (USA500), clinical isolate NRS 385; assay: aPDI with CFL irradiation (406 nm), planktonic bacteria, drop-plate colony count; conditions: for potency relative to dark toxicity (0 min exposure): 15 min CFL, 3-log reduction
Description: (§1) In all cases, we observed potent aPDI with bactericidal activities at 1-5 μM (Table 1). The consistent response to Ga-PpIX treatment is encouraging, as variable efficacy between strains is a known problem in antimicrobial photodynamic therapy (Nakonieczna, J. et al., Photodiagn. Photodyn. Ther. 2012, 9, 359-361). […] We note that PpIX is already approved as a photosensitizer for topical treatment of several skin diseases, but its utility is limited by poor photostability.
(§2) All bacterial strains were cultured at 37° C. in an aerobic atmosphere unless otherwise noted. […] Bacterial counts were estimated in units of cfu/mL by plating serial dilutions onto agar plates, followed by incubation for 16 hours at 37° C. Iron-challenged conditions were typically achieved by first growing the bacteria in standard (iron-replete) media (see Table 2), then harvesting and resuspending in media containing 3 mM 2,2′-bipyridine. Further details and variations on iron-deficient culture conditions are provided in Supporting Information.
(§3) A 20-W compact fluorescent lightbulb (CFL; Sunlite SL20/BLB) housed in an ellipsoidal reflector dome was used for aPDI, at an emission wavelength at 406 nm and a mean power density of 12.4 mW/cm^2 (after applying a 408-nm shortpass filter). Antimicrobial assays were performed on planktonic bacteria at 10^7 cfu/mL with variable exposure times to CFL irradiation, followed by plating on agar and incubation at 37° C. In a typical experiment, bacterial suspensions were transferred into 96-well plates then treated with 100-μL aliquots of Ga-PpIX or PpIX solution, with final concentrations ranging from 320 to 0.31 μg/mL, followed immediately with CFL irradiation for 5 to 15 minutes. The irradiated bacteria were plated onto agar in serial tenfold dilutions (10^7-10^1 cfu/mL); controls included one set of wells without photosensitizer, and one set of wells with photosensitizer but without 15 min irradiation, prior to plating (dark toxicity). Bacterial counts were determined by the drop-plate method using TS-agar plates, and reported in colony-forming units per milliliter (cfu/mL).
(§4) The irradiation source consisted of a 20-W compact fluorescent lightbulb (CFL; Sunlite SL20/BLB) housed in an ellipsoidal reflector dome. Emission spectra were measured with an Acton SpectraPro 2300i spectrometer (1200 gratings/inch), with major peaks at 406 and 438 nm and a minor peak at 548 nm (FIG. 10). Irradiance was measured with a handheld luminometer (Lux/FC HS1010A) positioned 4 cm from the CFL, yielding 91 lux or an average power density of 36.4 mW/cm^2; addition of a 425-nm or 408-nm shortpass filter yielded 31 lux or 12.4 mW/cm^2 corresponding with emission at 406 nm. The CFL produced only minor increases in temperature within the dome (28° C. after 15 min).

[2] = system: MRSA (USA800), clinical isolate NRS 387; assay: as above; conditions: for potency relative to dark toxicity (0 min exposure): 15 min CFL, 3-log reduction
Description: as §1, §2, §3, §4

[3] = system: MRSA (USA200), clinical isolate NRS 383; assay: as above; conditions: for potency relative to dark toxicity (0 min exposure): 15 min CFL, 3-log reduction
Description: as §1, §2, §3, §4

[4] = system: MRSA (USA700), clinical isolate NRS 386; assay: as above; conditions: for potency relative to dark toxicity (0 min exposure): 15 min CFL, 3-log reduction
Description: as §1, §2, §3, §4

[5] = system: S. aureus (PCI 1203); assay: Competitive hemin uptake assay (fluorescence microscopy); conditions: for Fluorescence after 15 min / Fluorescence after 15 min exposure + 1 equiv. hemin: Fe-deficient conditions (TS media containing 3 mM bipy), no background subtraction
Description: To elucidate the relevant structural features for the specific uptake of Ga-PpIX by S. aureus, we performed a competitive uptake assay using one equivalent of hemin against Ga-PpIX, PpIX, and eleven other fluorescent PpIX derivatives, with evaluation by fluorescence microscopy after 15 minutes of co-incubation (FIG. 5 and Table 4). These studies were partly guided by insights taken from the X-ray structures of hemin and Ga-PpIX within the binding pocket of IsdH: (i) coordination of the metal center by an apical tyrosine residue; (ii) the flanking of vinyl groups on pyrrole rings A and B against nearby aromatic residues; and (iii) the extension and presumed hydration of the propionyl groups (rings C and D) outside of the binding pocket.
Bacteria were cultured and assayed in iron-deficient media unless otherwise noted. A stock solution of Ga-PpIX (14.6 μM) was prepared by dispersing 5 mg in 1 mL of 10% DMSO in PBS for 10 minutes in an ultrasonic cleaning bath protected from light, followed by filtration and 10× dilution in PBS just prior to use. Bacterial suspensions (0.5 mL) were treated with freshly prepared solutions of PpIX derivatives for specified periods (5-15 min), then harvested by centrifugation at 5.2 g for 5 minutes, redispersed twice in 0.5 mL deionized water, and centrifuged a third time. A 10-μL aliquot of concentrated bacteria was deposited onto a glass slide and dried in air for 20 min, then imaged by fluorescence microscopy as described above. For details on fluorescence image processing and quantitative analysis, see Supporting Information.
S. aureus (PCI 1203; ATCC 10537) was first cultured in standard TS broth, then in media containing 3 mM bipyridine. Bacteria were pelleted and washed with PBS buffer three times, then resuspended to a final concentration of 10^8 cfu/mL. Stock solutions of hemin and PpIX derivatives 1-13 were prepared at initial concentrations of 292 μM; hemin and fluorescent PpIX solutions were mixed in a 1:1 ratio (0.5 mL), then added to 0.5 mL of bacterial suspension and allowed to sit for 15 min at room temperature. For control studies, hemin or fluorophore solutions were substituted with PBS to maintain constant […]. Bacteria were harvested and washed as described above, then evaluated by fluorescence microscopy for relative uptake efficiency.
Darkfield and fluorescent images were acquired in succession, with the former used to map regions of interest (ROIs) by tracing the outlines of bacteria (FIG. 8). Three images were acquired for each sample; in each case, the tracing map was overlaid onto the fluorescence image to calculate pixel intensities within each ROI, using the mean pixel intensity for quantitative analysis. Bacteria were also imaged without treatment with PpIX analogs, most of which produced values close to that of background except for Salmonella enterica, which served as the upper limit of autofluorescence (cf. FIG. 4). Data collection and image analyses were performed by the same user to ensure consistency for comparative analysis.

[6] = 0 min (dark), no irradiation (dark toxicity)
[7] = 0 min (dark), no irradiation (dark toxicity), listed as Ga-
[8] = one equivalent of hemin, 15 minutes of co-incubation
[9] = 0 min (dark), no irradiation (dark toxicity), listed as PpIX

| Compound | Antimicrobial activity (minimum 3-log CFU reduction) [1, 6] [μM] | Antimicrobial activity (minimum 3-log CFU reduction) ([1]; 15 min CFL (11.2 J/cm^2)) [μM] | Eradication (6 log reduction) ([1]; 15 min CFL (11.2 J/cm^2)) [μM] | potency relative to dark toxicity (0 min exposure) [1] [x] | Eradication (6 log reduction) ([1]; No irradiation (dark toxicity)) [μM] | Antimicrobial activity (minimum 3-log CFU reduction) [2, 6] [μM] | Antimicrobial activity (minimum 3-log CFU reduction) ([2]; 15 min CFL (11.2 J/cm^2)) [μM] | Eradication (6 log reduction) ([2]; 15 min CFL (11.2 J/cm^2)) [μM] | potency relative to dark toxicity (0 min exposure) [2] [x] | Eradication (6 log reduction) ([2]; No irradiation (dark toxicity)) [μM] | Antimicrobial activity (minimum 3-log CFU reduction) [3, 6] [μM] | Eradication (6 log reduction) ([3]; 15 min CFL (11.2 J/cm^2)) [μM] | potency relative to dark toxicity (0 min exposure) [3] [x] | Eradication (6 log reduction) ([3]; No irradiation (dark toxicity)) [μM] | Antimicrobial activity (minimum 3-log CFU reduction) [4, 6] [μM] | Antimicrobial activity (minimum 3-log CFU reduction) ([4]; 15 min CFL (11.2 J/cm^2)) [μM] | Eradication (6 log reduction) ([4]; 15 min CFL (11.2 J/cm^2)) [μM] | potency relative to dark toxicity (0 min exposure) [4] [x] | Eradication (6 log reduction) ([4]; No irradiation (dark toxicity)) [μM] | Fluorescence after 15 min [5] [a.u.] | further results |
| --- | --- | --- | --- | --- | --- | --- | --- | --- | --- | --- | --- | --- | --- | --- | --- | --- | --- | --- | --- | --- | --- |
| Ga(III)-protoporphyrin [Ga-PpIX (1)] | >146 | 4.6 | 36.3 | >32 | >146 | 73 | 1.1 | 2.3 | 64 | 146 | 36.3 | 2.3 | 32 | 73 | >146 | 4.6 | 18.3 | >32 | >146 | 42.55 | Antimicrobial activity (minimum 3-log CFU reduction) [1, 7]: >146^d μM; Antimicrobial activity (minimum 3-log CFU reduction) ([3]; 15 min CFL (11.2 J/cm^2), listed as Ga-): 1.1^c μM; Antimicrobial activity (minimum 3-log CFU reduction) ([3]; 15 min CFL (11.2 J/cm^2), listed as GaPpIX (1)): 1.1 μM; Antimicrobial activity (minimum 3-log CFU reduction) [4, 7]: >146^d μM; Fluorescence after 15 min exposure + 1 equiv. hemin [5]: 10.0 a.u.; reduction in fluorescence by competition with hemin [5, 8]: greater than 80% |
| C=CC1=C(C)c2cc3[nH]c(cc4nc(cc5[nH]c(cc1n2)c(C)c5CCC(=O)O)C(CCC(=O)O)=C4C)c(C)c3C=C [PpIX (2), PpIX, reference compound] | >146 | 18.3 | 36.3 | >8 | >146 | >146 | 9.1 | 18.3 | 16 | >146 | 36.3 | 4.6 | 32 | 146 | >146 | 36.3 | 73 | >4 | >146 | 16.70 | Antimicrobial activity (minimum 3-log CFU reduction) [1, 9]: >146^d μM; Antimicrobial activity (minimum 3-log CFU reduction) [2, 9]: 146 μM; Antimicrobial activity (minimum 3-log CFU reduction) ([3]; 15 min CFL (11.2 J/cm^2)): 1.1 μM; Antimicrobial activity (minimum 3-log CFU reduction) ([3]; 15 min CFL (11.2 J/cm^2), listed as PpIX): 1.1^c μM; Antimicrobial activity (minimum 3-log CFU reduction) [4, 9]: >146^d μM; Fluorescence after 15 min exposure + 1 equiv. hemin [5]: 9.4 a.u.; effect of hemin competition on uptake [5, 8]: moderately affected by hemin |
